Measurements reported in patent publication US4175081A, “5-Substituted thiadiazole ureas” (priority 1977, dated 1979).

What was measured:
Sinapis [1] = assay: Field test, post-emergence application; format: in vivo; set-up: unit not given here; details: 2 lbs/acre, reading 0 = no effect, 10 = completely killed, 8 and 14 days
Description: (§1) Tests have also been made for the compound of Example 1 with Sinapis, oats and wheat. This test was conducted according to the following procedure.
(§2) Forty rows, 70 feet long, were planted to weeds and crops. Two rows were planted on each bed. Beds were 40 inches apart from center to center. The two rows were about 10 inches apart on each bed. Beds were rolled prior to planting to provide a uniform smooth surface. Soil temperature at a depth of 11/2 inches was 66° F. at time of planting. Post-emergence applications were made by spraying bands across rows 10 feet wide using a self-propelled plot sprayer with a 10 foot boom equipped with Teejet 8001 flat spray nozzle tips and operated at 40 psi. A total of 84 fluid ounces of spray material was applied to three replicates. Each replicate plot was 10 feet wide by 66.67 feet long.
(§3) Eight days after the application, readings were made on the effect of the chemicals on each crop and weed in the post-emergence treatment. A reading of 0 was recorded if no effect was observed; 10 recorded if the plants were completely killed, and readings of 1 to 9 for intermediate kills. A second reading of the post-emergence treatments was made 14 days after the application.

Bean (BN) [2] = assay: Pre-emergence herbicide test; format: in vivo, Phaseolus vulgaris var. Black Valentine; details: Phaseolus vulgaris, 336 h, two weeks after treatment
Outline: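 Black Valentine bean was seeded in potting soil one day before spraying. Compound was applied pre-emergence at 8 lbs/acre (also 4 lbs/acre) in 38 gallons per acre. Plants were sub-irrigated and injury or control was rated visually after two weeks.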

Sinapis [3] = assay: Field test, pre-emergence application; format: in vivo; details: reading 0 = no effect, 10 = completely killed, 14 and 20 days
Description: as §1
as §2, with “long. […]” for “long.”
as §3
Readings were made 14 and 20 days after the pre-emergence application.

[4] = Acute oral toxicity in rats; details: rat, in vivo
Turnip (TP) [5] = assay: Pre-emergence herbicide test; format: in vivo, Brassica sp.; details: Brassica rapa, pre-emergence, 336 h, two weeks after treatment
Outline: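 Turnip (Brassica sp.) seeds were surface sown in 3' plastic pots of potting soil, covered with a thin layer of screened soil, and sub-irrigated in greenhouse trays. Pots were seeded one day ahead of treatment, sprayed pre-emergence under a hood with a fixed nozzle and moving belt, then kept in the greenhouse.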

[6] = system: Yellow foxtail grass (YF); assay: Pre-emergence herbicide test; format: in vivo, Setaria glauca; details: Setaria, 336 h, two weeks after treatment
Outline: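 Seeds surface-sown in potting soil one day before spraying; compounds applied pre-emergence at 8 or 4 lbs/acre in 38 gallons/acre spray. Pots held in greenhouse with sub-irrigation only. Injury or control rated visually two weeks after treatment.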

Cotton (CT) [7] = assay: Post-emergence herbicide test; format: in vivo, Gossypium hirsutum var. DPL smooth leaf; details: Gossypium hirsutum, post-emergence, 336 h, two weeks after treatment
Outline: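 Cotton (Gossypium hirsutum var. DPL smooth leaf) was grown in 3' plastic pots of potting soil, four seeds per pot, planted at a depth equal to the seed diameter and watered by sub-irrigation. At the stage of expanded cotyledons with the first true leaf 1' long, plants were sprayed post-emergence in a hood with a fixed nozzle over a moving belt. Percent control was rated visually two weeks later.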

Bean (BN) [8] = assay: Post-emergence herbicide test; format: in vivo, Phaseolus vulgaris var. Black Valentine; details: Phaseolus vulgaris, post-emergence, 336 h, two weeks after treatment
Outline: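 Snapbean (Phaseolus vulgaris var. Black Valentine) was tested post-emergence. Four seeds were sown in 3' plastic pots of potting soil at a depth equal to the seed diameter, then sub-irrigated in greenhouse trays. Planting dates were staggered so plants were sprayed once primary leaves had expanded, with the growing point at the primary leaf nodes.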

[9] = system: Yellow foxtail grass (YF); assay: Post-emergence herbicide test; format: in vivo, Setaria glauca; details: Setaria, 336 h, two weeks after treatment
Outline: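 Potted seedlings grown in greenhouse, planting staggered to reach the target stage together, then sprayed post-emergence at 8 lbs actual compound/acre in 38 gallons/acre (4 lbs/acre formulations also prepared). Sub-irrigated afterwards. Injury or control rated visually two weeks after treatment.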

Barnyard grass (BG) [10] = assay: Post-emergence herbicide test; format: in vivo; details: Echinochloa crus-galli, 336 h, two weeks after treatment
Outline: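 Greenhouse pot-grown barnyard grass seedlings sprayed post-emergence at 8 lbs active compound per acre (some at 4 lbs/acre) in 38 gallons per acre, then sub-irrigated. Injury or control rated visually two weeks after treatment.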

Turnip (TP) [11] = assay: Post-emergence herbicide test; format: in vivo, Brassica sp.; details: Brassica rapa, post-emergence, 336 h, two weeks after treatment
Outline: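 A greenhouse post-emergence herbicide test on turnip. Seeds were sown on the surface of potting soil in 3' plastic pots, lightly covered with screened soil and watered from below. Planting was timed so seedlings had 1 or 2 true leaves above the cotyledons at spraying, done in a hood with a fixed nozzle. Control or injury was scored by eye after two weeks.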

[12] = system: variety of crops and weed species; assay: Pre- and post-emergence herbicide tests, overall assessment of Tables III-VI; format: in vivo; details: data of Tables III-VI
Outline: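 Crops and weeds grown in potting soil were sprayed at 8 lbs. compound per acre in 38 gallons per acre, pre-emergence pots seeded one day before treatment. Injury or control was visually rated two weeks after treatment.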

Corn (CN) = assay: Pre-emergence herbicide test; format: in vivo; details: Zea mays, 336 h, two weeks after treatment
Outline: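 Four corn seeds per pot, sown at seed-diameter depth one day before spraying, got soil surface treatment at 8 lbs/acre (4 lbs/acre formulations also prepared) in 38 gallons/acre. Pots were greenhouse-held with sub-irrigation only. Injury or control was scored visually two weeks after treatment.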

Barnyard grass (BG) [13] = assay: Pre-emergence herbicide test; format: in vivo; details: Echinochloa crus-galli, 336 h, two weeks after treatment
Outline: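 Barnyard grass surface-seeded in potting soil and sprayed pre-emergence one day after seeding, at 8 or 4 lb compound/acre in 38 gal/acre spray volume. Pots kept in greenhouse with sub-irrigation only; injury or control rated visually two weeks after treatment.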

Cotton (CT) [14] = assay: Pre-emergence herbicide test; format: in vivo, Gossypium hirsutum var. DPL smooth leaf; details: Gossypium hirsutum, 336 h, two weeks after treatment
Outline: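 Crop and weed species seeded one day before treatment, then sprayed pre-emergence at 8 lbs actual compound per acre (also 4 lbs/acre formulations) in 38 gallons per acre. Pots kept in greenhouse with sub-irrigation only; injury or control visually rated two weeks after treatment.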

Crabgrass (CG) = assay: Pre-emergence herbicide test; format: in vivo, Digitaria sanquinalis; details: Digitaria sanguinalis, pre-emergence, 336 h, two weeks after treatment
Outline: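 Crabgrass (Digitaria sanquinalis) was surface seeded in 3' plastic pots of potting soil, covered with screened soil, and watered by sub-irrigation in greenhouse trays. Pots were seeded one day before spraying in a hood with a moving belt and fixed nozzle. Plants stayed in the greenhouse on sub-irrigation, and pre-emergence control was rated visually two weeks after treatment.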

CNC(=O)Nc1nnc(C(F)(F)F)s1 [Example 1, 1-Methyl-3-[5-Trifluoromethyl-2-(1,3,4-Thiadiazolyl)] Urea]
Post-emergence activity, % control, Sinapis (Sinapis [1]): 10 | pest or weed control at 4483.4 g/ha (Bean (BN) [2]; 4 lb/acre): 90% | pest or weed control at 8966.8 g/ha (Bean (BN) [2]; 8 lb/acre): 90% | Pre-emergency activity, % control, Sinapis (Sinapis [3]; 1 lb/acre): 10 rating score (0–10 scale) | Pre-emergency activity, % control, Sinapis (Sinapis [3]; 2 lbs/acre): 10 rating score (0–10 scale) | LD50 [4]: 436 mg/kg | pest or weed control at 4483.4 g/ha (Turnip (TP) [5]; 4 lb/acre): 90% | pest or weed control at 8966.8 g/ha (Turnip (TP) [5]; 8 lb/acre): 100% | pest or weed control at 4483.4 g/ha ([6]; 4 lb/acre): 80% | pest or weed control at 8966.8 g/ha ([6]; 8 lb/acre): 90% | pest or weed control at 2241.7 g/ha (Cotton (CT) [7]; 2 lb/acre): 100% | pest or weed control at 4483.4 g/ha (Cotton (CT) [7]; 4 lb/acre): 100% | pest or weed control at 8966.8 g/ha (Cotton (CT) [7]; 8 lb/acre): 100% | pest or weed control at 2241.7 g/ha (Bean (BN) [8]; 2 lb/acre): 100% | pest or weed control at 4483.4 g/ha (Bean (BN) [8]; 4 lb/acre): 100% | pest or weed control at 8966.8 g/ha (Bean (BN) [8]; 8 lb/acre): 100% | pest or weed control ([9]; 2 lb/acre): 50% | pest or weed control at 4483.4 g/ha ([9]; 4 lb/acre): 90% | pest or weed control at 8966.8 g/ha ([9]; 8 lb/acre): 100% | pest or weed control at 2241.7 g/ha (Barnyard grass (BG) [10]; 2 lb/acre): 70% | pest or weed control at 4483.4 g/ha (Barnyard grass (BG) [10]; 4 lb/acre): 100% | pest or weed control at 8966.8 g/ha (Barnyard grass (BG) [10]; 8 lb/acre): 100% | pest or weed control at 2241.7 g/ha (Turnip (TP) [11]; 2 lb/acre): 80% | pest or weed control at 4483.4 g/ha (Turnip (TP) [11]; 4 lb/acre): 100% | pest or weed control at 8966.8 g/ha (Turnip (TP) [11]; 8 lb/acre): 100% | herbicidal effectiveness / selectivity, in words [12]: extremely effective when applied to a variety of crops and weed species | pest or weed control at 4483.4 g/ha (Corn (CN); 4 lb/acre): 30% | pest or weed control at 8966.8 g/ha (Corn (CN); 8 lb/acre): 90% | pest or weed control at 4483.4 g/ha (Barnyard grass (BG) [13]; 4 lb/acre): 90% | pest or weed control at 8966.8 g/ha (Barnyard grass (BG) [13]; 8 lb/acre): 90% | pest or weed control at 4483.4 g/ha (Cotton (CT) [14]; 4 lb/acre): 80% | pest or weed control at 8966.8 g/ha (Cotton (CT) [14]; 8 lb/acre): 100% | pest or weed control at 4483.4 g/ha (Crabgrass (CG); 4 lb/acre): 90% | pest or weed control at 8966.8 g/ha (Crabgrass (CG); 8 lb/acre): 100%
